Measured values from patent US8993556B2, “Resorcinol derivatives as HSP90 inhibitors” (priority 2009, dated 2015).

Tests used:
[1] = tested on: A2780 human ovarian cells; test: In Vitro Cell Proliferation Assay; format: cell-based; settings: Homo sapiens, A2780, 72 h, read-out: A2780 Proliferation IC50 (μM)
Method: The cells were incubated at 37° C. and 5% CO2 and after 72 hours the plates were processed using CellTiter-Glo assay (Promega) following the manufacturer's instruction.
CellTiter-Glo is a homogenous method based on the quantification of the ATP present, an indicator of metabolically active cells. ATP is quantified using a system based on luciferase and D-luciferin resulting into light generation. The luminescent signal is proportional to the number of cells present in culture.
Briefly 25 μL/well reagent solution are added to each wells and after 5 minutes shacking microplates are red by a luminometer. The luminescent signal is proportional to the number of cells present in culture.

His-HSP90 N-term domain = test: Determination of KD Via Biacore; format: binding; settings: Biacore T100
Method: The evaluation of the binding affinity (KD) of the compounds of formula (I) to the HSP90 protein was done using Biacore T100.
His-HSP90 N-term domain was immobilized by capture of his tag by the Ab previously covalently bound to the chip (CM5) surface.
The compounds were analyzed using the following running buffer: 20 mM Tris/HCl pH 7.6, 150 mM KCl, 5 mM MgCl2, 0.05% P20 and 1% DMSO. The flow rate was 50 ul/min with and association time of 60 seconds.
The cpds were diluted in running buffer from 100× stock solution; the different conc injected were obtained from a sequential dilution in order to have the same DMSO conc. in each sample and avoid any solvent correction.

[2] = tested on: Her2 protein levels in BT474 breast cancer cells; test: Her2 Degradation Assay; format: cell-based; settings: Homo sapiens, BT-474, 8 h, read-out: Her2 Degradation IC50 (μM)
Method: The potencies of the compounds of the present invention were evaluated by measuring the Her2 degradation as a marker for HSP90 inhibition.
HSP90 is a key component of a chaperone machinery that catalyzes the folding and quality control of several proteins. Its inhibition impairs the capacity to fold or stabilize its client proteins, leading to the proteosomal dependent degradation of these unfolded proteins. […] Cellular activity of HSP90 inhibitors was assessed by measuring the induced loss of Her2 protein levels in BT474 breast cancer cells (ATCC #HTB-20). Cellular Her2 levels were measured by immunocytochemistry, and quantified using an ArrayScan vTi instrument (Cellomics Thermo Scientific).
Cellular activity of HSP90 inhibitors was assessed by measuring the induced loss of Her2 protein levels in BT474 breast cancer cells (ATCC #HTB-20). Cellular Her2 levels were measured by immunocytochemistry, and quantified using an ArrayScan vTi instrument (Cellomics Thermo Scientific).
Studies were performed as follows: 5000 cells/well are seeded in 96 well plates (Perkin Elmer) in DMEM/5% FCS and incubated for 48 hours at 37° C., 5% CO2.
Medium is then replaced with fresh medium containing test compounds at the required concentration. Concentration curves are prepared in DMEM/10% FCS from compound stocks in DMSO, and final DMSO concentration is 0.1% (v/v). Duplicate wells for each concentration point are prepared, with a typical highest compound concentration of 30 μM. […] Plates are incubated for 20 minutes at room temperature, then wells are washed in PBS and cells permiabilised by incubating with PBS containing 0.3% Triton X-100 for 15 minutes at room temperature. Non-specific binding sites are blocked by incubating wells for 1 hour in PBS containing 3% (w/v) BSA. Wells are then incubated for 1 hour at room temperature in PBS containing anti Her2 mouse monoclonal (Anti-c-ErbB2/c-Neu, Mouse mAb 3B5, Calbiochem Cat N^o OP15) diluted 1:100 in 1% (w/v) BSA. […] After washing a further 3 times in PBS, cellular Her2 immunoreactivity is assessed using the ArrayScan vTi instrument, with a Zeiss 10× 0.5 N.A. objective, and applying the Cytotoxity.V3 algorithm (Cellomics/Thermo Fisher) with a XF100 filter. At least 10 fields, corresponding to at least 900 cells, are read for each well.
IC50 is the response; IC50 starts at Bottom and goes to Top with a sigmoid shape. In Vitro Cell Proliferation Assay

[3] = tested on: human ovarian carcinoma cell line A2780 transplanted in immunodeficient mice; test: In Vivo Antitumor Efficacy; design: species or system mouse; settings: A2780 in athymic mice
Method: Antitumor activity of HSP90 inhibitors was assessed in vivo using the human ovarian carcinoma cell line A2780 transplanted in immunodeficient mice.
Balb Nu/Nu, male mice, (athymic mice) from Harlan, Italy, were maintained in cages with paper filter covers, food and bedding sterilized and water acidified. A2780 tumors were maintained in vivo by serial transplantation and, at the time of efficacy experiments, implanted subcutaneously in athymic mice. The treatments started 8 days later when the tumors were palpable. HSP90 inhibitors were prepared immediately before use and administered intravenously in a volume of 10 ml/kg at different doses.
Tumor growth was assessed by caliper. The two diameters were recorded, and the tumor weight was calculated according to the following formula: length (mm)×width^2 (mm)/2. The effect of the antitumor treatment was determined as tumor growth inhibition (TGI %) of treated group respect to vehicle treated controls.

in vivo = settings: Mouse Balb Nu/Nu, single
Method: Calibration Standards and Quality Controls were prepared spiking blank mouse plasma with appropriate working solutions.
Sample plasma proteins were precipitated by adding 160 μL of acetonitrile/methanol 90/10 to 20 μL of mouse plasma in a 96 well plate.
After heat sealing and mixing for 3 minutes, the plate was centrifuged for 15 minutes at 4000 rpm.
The supernatant was considered as final extract and injected onto the LC-MS-MS system.
• UPLC system: Waters Acquity BSM • Mobile phase A: 95:5-5 mM Ammonium Formate pH3.5: Acetonitrile • Mobile phase B: 5:95-5 mM Ammonium Formate pH3.5: Acetonitrile • Analytical column: BEH C18 50×2.1 1.7 μm • Elution conditions:
• Total Run Time: 2.0 min. • Flow rate: 0.500 mL/min • Approximate retention time: NMS-03308086: 0.67 min. • Column oven temp: 40° C. • Autosampler type: Waters Acquity SM • Injection volume: 3 μL • Injection mode: Partial Loop with Needle Overfill • Autosampler temperature: 5° C. • MS instrument: Waters TQD • Ionisation: ES+ • Capillary: 1.5 kV • Cone: 70 V • Source Temperature: 150° C. • Desolvation Flow and Temp.: 900 L/h-400° C. • Collision Gas Flow: 0.2 mL/min • Collision Energy: 40 • MRM transitions: NMS-03308086: m/z 579.1>m/z 97.0 • Dwell Time: 0.1 seconds • LLOQ: 5.0 ng/mL • ULOQ: 5000 ng/mL • Software used: Mass Lynx 4.1 SCN627

Compound | IC50 [1] [µM] | Kd (His-HSP90 N-term domain) [nM] | IC50 [2] [µM] | TGI ([3]; intravenously at 40 mkg/kg every three days) [%] | clearance (in vivo; 10 mg/kg IV bolus, read-out: CL (mL/h/kg) Plasma clearance (converted)) [mL/h/kg] | half-life (in vivo; 10 mg/kg IV bolus, read-out: T1/2 (h) Terminal half-life (converted)) [h] | Vd (in vivo; 10 mg/kg IV bolus, read-out: Vdss (mL/kg) Volume of distribution at steady state) [mL/kg] | bioavailability (in vivo; 10 mg/kg oral vs 10 mg/kg IV, read-out: F % Oral bioavailability) [%] | TGI ([3]; intravenously at 30 mg/Kg daily) [%]
CN1CCC(NC(=O)c2cc(-c3c(O)cc(O)cc3Oc3ccc(N(C)C)cc3)no2)CC1 [3-{2-[4-(Dimethylamino)phenoxy]-4,6-dihydroxyphenyl}-N-(1-methylpiperidin-4-yl)isoxazole-5-carboxamide] | 0.03 | 0.066 | 0.008 | 88 | 3430 | 5.12 | 12500 | 25 | 
CN(C)c1ccc(Oc2cc(O)cc(O)c2-c2cc(C(=O)NC3CCN(C4CCC5(CC4)OCCCO5)CC3)no2)cc1 [5-{2-[4-(Dimethylamino)phenoxy]-4,6-dihydroxyphenyl}-N-[1-(1,5-dioxaspiro[5.5]undec-9-yl)piperidin-4-yl]isoxazole-3-carboxamide] | 0.021 | 0.079 | 0.038 |  |  |  |  |  | 92
